This passage reports IC50, melting point and inhibition results from paper PMC6470675, “Design and Synthesis of New Quinoxaline Derivatives as Anticancer Agents and Apoptotic Inducers” (Molecules, 2019).

Some results are limits rather than exact numbers.

T1 sequence (P35968 20-1356): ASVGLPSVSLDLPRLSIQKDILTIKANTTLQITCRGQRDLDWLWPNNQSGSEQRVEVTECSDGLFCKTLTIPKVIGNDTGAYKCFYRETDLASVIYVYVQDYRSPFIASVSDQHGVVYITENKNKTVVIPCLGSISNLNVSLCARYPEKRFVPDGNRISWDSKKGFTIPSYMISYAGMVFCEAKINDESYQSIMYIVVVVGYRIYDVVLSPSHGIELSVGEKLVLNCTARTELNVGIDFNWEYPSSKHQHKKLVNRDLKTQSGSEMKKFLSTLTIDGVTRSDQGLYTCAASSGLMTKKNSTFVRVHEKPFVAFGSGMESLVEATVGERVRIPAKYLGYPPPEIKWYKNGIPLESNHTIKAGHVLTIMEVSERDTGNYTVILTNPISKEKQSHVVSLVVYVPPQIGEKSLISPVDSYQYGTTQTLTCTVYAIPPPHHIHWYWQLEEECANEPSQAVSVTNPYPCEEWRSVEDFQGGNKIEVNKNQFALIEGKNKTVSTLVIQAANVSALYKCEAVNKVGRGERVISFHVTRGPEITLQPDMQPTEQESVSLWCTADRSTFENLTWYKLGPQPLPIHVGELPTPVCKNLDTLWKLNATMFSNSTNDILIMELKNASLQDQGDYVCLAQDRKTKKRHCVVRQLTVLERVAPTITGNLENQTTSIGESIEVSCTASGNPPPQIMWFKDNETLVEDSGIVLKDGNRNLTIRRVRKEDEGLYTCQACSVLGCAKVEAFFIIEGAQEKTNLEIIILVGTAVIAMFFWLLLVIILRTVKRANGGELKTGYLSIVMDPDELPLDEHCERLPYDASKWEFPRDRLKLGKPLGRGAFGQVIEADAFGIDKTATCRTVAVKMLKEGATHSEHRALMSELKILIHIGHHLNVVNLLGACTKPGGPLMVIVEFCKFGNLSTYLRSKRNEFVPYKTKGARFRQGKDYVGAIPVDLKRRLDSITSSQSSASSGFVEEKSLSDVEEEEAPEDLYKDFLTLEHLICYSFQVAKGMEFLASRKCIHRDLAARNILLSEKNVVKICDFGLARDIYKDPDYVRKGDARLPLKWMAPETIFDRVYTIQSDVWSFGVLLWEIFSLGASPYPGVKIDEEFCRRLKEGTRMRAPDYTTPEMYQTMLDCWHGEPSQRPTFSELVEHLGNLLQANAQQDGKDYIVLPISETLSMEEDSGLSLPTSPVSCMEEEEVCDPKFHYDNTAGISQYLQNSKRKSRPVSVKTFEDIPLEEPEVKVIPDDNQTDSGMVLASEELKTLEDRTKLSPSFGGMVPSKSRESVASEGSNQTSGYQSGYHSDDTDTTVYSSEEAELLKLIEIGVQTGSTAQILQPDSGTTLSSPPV

One data set deals with Hep G2 human hepatocellular carcinoma cell line. Kind of data set: In vitro cell proliferation (MTT) assay, Hep G2. It counts as cell-based. The conditions noted are these: Homo sapiens, HepG2; MTT, 72 h exposure. As to the method: (§1) The targeted compounds were tested for their in-vitro anti-cancer activity against three tumor cell lines (HCT116, Hep G2 and MCF-7). Doxorubicin was included in the experiments as a reference cytotoxic compound. Exponentially growing cells from different cancer cell lines were trypsinized, counted and seeded at the appropriate densities into 96-well microtiter plates. Cells then were incubated in a humidified atmosphere at 37 °C for 24 h. Then, cells were exposed to different concentrations of compounds for 72 h. Then the viability of treated cells was determined using MTT technique (described latter).
(§2) Three cancer cell lines including human colon carcinoma (HCT116), human breast adenocarcinoma (MCF-7) and human hepatocellular carcinoma (Hep G2), were purchased from American Type Cell Culture Collection (ATCC, Manassas, VA, USA) and grown on the appropriate growth medium Dulbecco’s modified Eagle’s medium (DMEM) or Roswell Park Memorial Institute medium (RPMI 1640) supplemented with […] of streptomycin, 100 units/mL of penicillin and 10% of heat-inactivated fetal bovine serum in a humidified, 5% (v/v) CO2 atmosphere at 37 °C [34]. Cytotoxicity assay by 3-[4,5-dimethylthiazole-2-yl]-2,5-diphenyltetrazolium bromide (MTT).
(§3) Exponentially growing cells from different cancer cell lines were trypsinized, counted and seeded at the appropriate densities (2000–1000 cells/0.33 cm^2 well) into 96-well microtiter plates. Cells then were incubated in a humidified atmosphere at 37 °C for 24 h. Then, cells were exposed to different concentrations of compounds (0.1, 10, 100, 1000 µM) for 72 h. Then the viability of treated cells was determined using MTT technique as follow. Media were removed; cells were incubated with 200 μL of 5% MTT solution/well (Sigma Aldrich, Darmstadt, Germany) and were allowed to metabolize the dye into a colored-insoluble formazan crystal for 2 h. The remaining MTT solution were discarded from the wells and the formazan crystals were dissolved in 200 µl/well acidified isopropanol for 30 min, covered with aluminum foil and with continuous shaking using a MaxQ 2000 plate shaker (Thermo Fisher Scientific Inc, Waltham, MA, USA) at room temperature. Absorbance were measured at 570 nm using a Stat Fax^R 4200 plate reader (Awareness Technology, Inc., Awareness Technology, FL, USA). The cell viability was expressed as percentage of control and the concentration that induces 50% of maximum inhibition of cell proliferation (IC50) were determined using Graph Pad Prism version 5 software (Graph Pad Software Inc, San Diego, CA, USA) (1,2).
The term IC50 denotes the midpoint of a concentration-inhibition curve. A higher IC50 goes with a need for much substance. Regarding `S=C(Nc1ccccc1)Nc1ccc(Nc2nc3ccccc3nc2Cl)cc1` [XVIIa, 1-(4-((3-Chloroquinoxalin-2-yl)amino)phenyl)-3-phenylthiourea], the IC50 was determined as 575 µM.
Same read-out and setting: in the case of `O=C(Nc1ccccc1)Nc1ccc(Nc2nc3ccccc3nc2Cl)cc1` [XVIIb, 1-(4-((3-Chloroquinoxalin-2-yl)amino)phenyl)-3-phenylurea] it was 513 µM; in that of `O=C(Nc1ccc(Cl)cc1)Nc1ccc(Nc2nc3ccccc3nc2Cl)cc1` [XVIIc, 1-(4-Chlorophenyl)-3-(4-((3-chloroquinoxalin-2-yl)amino)phenyl)urea], 616 µM.
Consider `Cc1cccc(NC(=O)Nc2ccc(Nc3nc4ccccc4nc3Cl)cc2)c1` [XVIId, 1-(4-((3-Chloroquinoxalin-2-yl)amino)phenyl)-3-(m-tolyl) urea], for which the IC50 was 513 µM.
Consider `O=C(Nc1ccc(Nc2nc3ccccc3nc2Cl)cc1)c1ccccc1` [XVIa, N-(4-((3-Chloroquinoxalin-2-yl)amino)phenyl)benzamide], for which inhibition was half-maximal at 513 µM (IC50).
`O=C(Nc1ccc(Nc2nc3ccccc3nc2Cl)cc1)c1ccc(Cl)cc1` [XVIb, 4-Chloro-N-(4-((3-chloroquinoxalin-2-yl)amino)phenyl) benzamide] displayed a half-inhibitory concentration (IC50) of more than 1000 µM.

A further data set relates to MCF-7 human breast adenocarcinoma cell line. The experiment in a line: In vitro cell proliferation (MTT) assay, MCF-7. It is filed as cell-based. The conditions noted are these: Homo sapiens, MCF7; MTT, 72 h exposure. As to the method: as §1, §2, §3
`S=C(Nc1ccccc1)Nc1ccc(Nc2nc3ccccc3nc2Cl)cc1` [XVIIa, 1-(4-((3-Chloroquinoxalin-2-yl)amino)phenyl)-3-phenylthiourea] yielded a 50% inhibitory concentration (IC50) of 170 µM.
Still for that read-out and setting: with `O=C(Nc1ccccc1)Nc1ccc(Nc2nc3ccccc3nc2Cl)cc1` [XVIIb, 1-(4-((3-Chloroquinoxalin-2-yl)amino)phenyl)-3-phenylurea] the figure was 148 µM; with `O=C(Nc1ccc(Cl)cc1)Nc1ccc(Nc2nc3ccccc3nc2Cl)cc1` [XVIIc, 1-(4-Chlorophenyl)-3-(4-((3-chloroquinoxalin-2-yl)amino)phenyl)urea], 692 µM.
The same measure, in the same setting: in the case of `Cc1cccc(NC(=O)Nc2ccc(Nc3nc4ccccc4nc3Cl)cc2)c1` [XVIId, 1-(4-((3-Chloroquinoxalin-2-yl)amino)phenyl)-3-(m-tolyl) urea] it was 64.5 µM.
Regarding `O=C(Nc1ccc(Nc2nc3ccccc3nc2Cl)cc1)c1ccccc1` [XVIa, N-(4-((3-Chloroquinoxalin-2-yl)amino)phenyl)benzamide], the IC50 amounted to 324 µM.
For the compound `O=C(Nc1ccc(Nc2nc3ccccc3nc2Cl)cc1)c1ccc(Cl)cc1` [XVIb, 4-Chloro-N-(4-((3-chloroquinoxalin-2-yl)amino)phenyl) benzamide], the IC50 is more than 1000 µM.

System in another data set: not given
Test: not given
Settings: not given
In general, melting point refers to the temperature of the solid-liquid transition. As for `S=C(Nc1ccccc1)Nc1ccc(Nc2nc3ccccc3nc2Cl)cc1` [XVIIa, 1-(4-((3-Chloroquinoxalin-2-yl)amino)phenyl)-3-phenylthiourea], the melting point is 190 to 191 °C.
The same measure, in the same setting: in the case of `O=C(Nc1ccccc1)Nc1ccc(Nc2nc3ccccc3nc2Cl)cc1` [XVIIb, 1-(4-((3-Chloroquinoxalin-2-yl)amino)phenyl)-3-phenylurea] it was 280 to 281 °C; in that of `O=C(Nc1ccc(Cl)cc1)Nc1ccc(Nc2nc3ccccc3nc2Cl)cc1` [XVIIc, 1-(4-Chlorophenyl)-3-(4-((3-chloroquinoxalin-2-yl)amino)phenyl)urea], more than 300 °C.
Same read-out and setting: with `Cc1cccc(NC(=O)Nc2ccc(Nc3nc4ccccc4nc3Cl)cc2)c1` [XVIId, 1-(4-((3-Chloroquinoxalin-2-yl)amino)phenyl)-3-(m-tolyl) urea] the figure was more than 300 °C.
On the same count and under the same terms, with `O=C(Nc1ccc(Nc2nc3ccccc3nc2Cl)cc1)c1ccccc1` [XVIa, N-(4-((3-Chloroquinoxalin-2-yl)amino)phenyl)benzamide] the figure was 270 to 273 °C; with `O=C(Nc1ccc(Nc2nc3ccccc3nc2Cl)cc1)c1ccc(Cl)cc1` [XVIb, 4-Chloro-N-(4-((3-chloroquinoxalin-2-yl)amino)phenyl) benzamide], 233 to 235 °C.
In turn, `Cc1ccc(C(=O)Nc2ccc(Nc3nc4ccccc4nc3Cl)cc2)cc1` [XVId, N-(4-((3-Chloroquinoxalin-2-yl)amino)phenyl)-4-methylbenzamide] came in with a melting point of 245 to 246 °C.

The next data set concerns HCT116 human colon carcinoma cell line. Kind of data set: In vitro cell proliferation (MTT) assay, HCT116. It counts as cell-based. The conditions noted are these: Homo sapiens, HCT-116; MTT, 72 h exposure. As for the experimental part:
as §1, §2, §3
`S=C(Nc1ccccc1)Nc1ccc(Nc2nc3ccccc3nc2Cl)cc1` [XVIIa, 1-(4-((3-Chloroquinoxalin-2-yl)amino)phenyl)-3-phenylthiourea] returned an IC50 of 309 µM.
Still for that read-out and setting: in the case of `O=C(Nc1ccccc1)Nc1ccc(Nc2nc3ccccc3nc2Cl)cc1` [XVIIb, 1-(4-((3-Chloroquinoxalin-2-yl)amino)phenyl)-3-phenylurea] it was 170 µM; in that of `O=C(Nc1ccc(Cl)cc1)Nc1ccc(Nc2nc3ccccc3nc2Cl)cc1` [XVIIc, 1-(4-Chlorophenyl)-3-(4-((3-chloroquinoxalin-2-yl)amino)phenyl)urea], 257 µM; in that of `Cc1cccc(NC(=O)Nc2ccc(Nc3nc4ccccc4nc3Cl)cc2)c1` [XVIId, 1-(4-((3-Chloroquinoxalin-2-yl)amino)phenyl)-3-(m-tolyl) urea], 190 µM.
On the same count and under the same terms, with `O=C(Nc1ccc(Nc2nc3ccccc3nc2Cl)cc1)c1ccccc1` [XVIa, N-(4-((3-Chloroquinoxalin-2-yl)amino)phenyl)benzamide] the figure was 347 µM.
`O=C(Nc1ccc(Nc2nc3ccccc3nc2Cl)cc1)c1ccc(Cl)cc1` [XVIb, 4-Chloro-N-(4-((3-chloroquinoxalin-2-yl)amino)phenyl) benzamide]: the IC50 is more than 1000 µM.

A further data set concerns the target T1, VEGFR-2 (Homo sapiens, UniProt P35968).
T1 construct: purchased Bio Science Corporation (BPS), San Diego, CA, USA
The experiment in a line: In vitro VEGFR-2 inhibition assay (Kinase-Glo Plus luminescence). It is filed as biochemical. The conditions noted are these: read-out: % of VEGFR-2 Inhibition. As for the experimental part:
In an attempt to investigate the possible mechanism of action of the synthesized compounds based on structural similarity with sorafenib, all of them were tested for VEGFR-2 inhibitory activity at Bio Science Corporation (BPS, San Diego, CA, USA). The assay was performed using the Kinase-Glo Plus luminescence kinase assay kit (Promega, San Diego, CA, USA). It measures kinase activity by quantitating the amount of ATP remaining in solution following a kinase reaction. […].
The in-vitro enzyme inhibition determination for the synthesized compounds was carried out at Bio Science Corporation (BPS)-San Diego, CA, USA. The assay was performed using Kinase-Glo Plus luminescence kinase assay kit (Promega), where the kinase activity was measured by quantitating the amount of ATP remaining in solution following a kinase reaction. The luminescent signal from the assay is correlated with the amount of ATP present and is inversely correlated with the amount of kinase activity. Our compounds were diluted with 10% DMSO and 5 µL of the dilution was added to a 50 µL reaction so that the final concentration of DMSO is 1% in all of reactions. All of the enzymatic reactions were conducted at 30 °C for 40 min. The 50 µL reaction mixture contains 40 mM Tris, pH 7.4, 10 mM MgCl2, 0.1 mg/mL BSA, 1 mM DTT, 10 µM ATP, Kinase substrate and the enzyme. After the enzymatic reaction, 50 µL of Kinase-Glo Plus Luminescence kinase assay solution (Promega San Diego, CA, USA) was added to each reaction and incubate the plate for 5 min at room temperature. Luminescence signal was measured using a BioTek Synergy 2 microplate reader.
Kinase activity assays were performed in duplicate at each concentration. The luminescence data were analyzed using the computer software, Graphpad Prism. The difference between luminescence intensities in the absence of Kinase (Lut) and in the presence of Kinase (Luc) was defined as 100% activity (Lut − Luc). Using luminescence signal (Lu) in the presence of the compound, % activity was calculated as:% activity = {(Lut − Lu)(Lut − Luc)} × 100% where Lu = the luminescence intensity in the presence of the compound.
A word on the inhibition: it is the relative decrease from the control value, in per cent. Consider `CN[C@@H]1C[C@H]2O[C@@](C)([C@@H]1OC)n1c3ccccc3c3c4c(c5c6ccccc6n2c5c31)C(=O)NC4` [Staurosporine, staurosporine, reference compound], for which the inhibition at 10 µM was 100%.

The data set is the same for the next values; noted with them: single concentration of 10 µM; read-out: % of VEGFR-2 Inhibition.
`S=C(Nc1ccccc1)Nc1ccc(Nc2nc3ccccc3nc2Cl)cc1` [XVIIa, 1-(4-((3-Chloroquinoxalin-2-yl)amino)phenyl)-3-phenylthiourea]: the inhibition at 10 µM worked out at 10%.
Still for that read-out and setting: in the case of `O=C(Nc1ccccc1)Nc1ccc(Nc2nc3ccccc3nc2Cl)cc1` [XVIIb, 1-(4-((3-Chloroquinoxalin-2-yl)amino)phenyl)-3-phenylurea] it was 10%; in that of `O=C(Nc1ccc(Cl)cc1)Nc1ccc(Nc2nc3ccccc3nc2Cl)cc1` [XVIIc, 1-(4-Chlorophenyl)-3-(4-((3-chloroquinoxalin-2-yl)amino)phenyl)urea], 6%.
Same read-out and setting: in the case of `Cc1cccc(NC(=O)Nc2ccc(Nc3nc4ccccc4nc3Cl)cc2)c1` [XVIId, 1-(4-((3-Chloroquinoxalin-2-yl)amino)phenyl)-3-(m-tolyl) urea] it was 5%; in that of `O=C(Nc1ccc(Nc2nc3ccccc3nc2Cl)cc1)c1ccccc1` [XVIa, N-(4-((3-Chloroquinoxalin-2-yl)amino)phenyl)benzamide], 8%.
With `O=C(Nc1ccc(Nc2nc3ccccc3nc2Cl)cc1)c1ccc(Cl)cc1` [XVIb, 4-Chloro-N-(4-((3-chloroquinoxalin-2-yl)amino)phenyl) benzamide], the inhibition at 10 µM was 4%.
As to `Cc1ccc(C(=O)Nc2ccc(Nc3nc4ccccc4nc3Cl)cc2)cc1` [XVId, N-(4-((3-Chloroquinoxalin-2-yl)amino)phenyl)-4-methylbenzamide], the inhibition at 10 µM worked out at 3%.
